Results on two substances are retold here after US8841269B2, “Polynucleotides for use in treating and diagnosing cancers” (Creighton University, priority 2010, dated 2014).

“Also recorded” adds a separate entry of the source.

In data set [1] the test system is ER-α. Description: Immunoblot of ER-α after transfection in MCF7. The format is cell-based, human. The settings on record: MCF7, mimics 60 nmol/L. The text has this: (§1) Immunoblot analysis. For Western blot in FFPE tissues, an established method was followed (Addis et al., 2009, Proteomics 9:3815-23). For MCF7 cell line, let-7 mimics and negative control miRNA (60 nmol/L), or let-7 inhibitors and anti-miR negative control (60 nmol/L) were transfected following the protocol of siPORT NeoFX Transfection Agent (Applied Biosystems), The Western blot procedure was described before (Zhang et al., 2010, J Proteome Res., 9(2):980-989). Antibody information is as follows: ER-α, RB-9016-P1, Thermoscientific; Cyclin D1, sc-8396, Santa Cruz; pS2, ab80782 was Abeam; β-Actin, sc-69879, Santa Cruz.

In data set [2] the test system is ERK1/2. The experiment in a line: Estrogen induced ERK1/2 activation (phos-ERK Western blot) in MDA-MB-231. The class given is cell-based, human. Particulars: MDA-MB-231, 10 nmol/L E2 after estrogen starvation. How it is done: After mixed with gel-loading buffer and boiled for 5 minutes, the protein samples were separated with 10% SDS-PAGE and transferred to a PVDF membrane (Millipore, Billerica, Mass.). The blots were probed with specific first antibodies and appropriate second antibodies. The blots were visualized with enhanced chemiluminescence (ECL) reagents (Pierce, Minneapolis, Minn.) and documented with a Fluor Chem FC2 (Alpha Innotech, Santa Clara, Calif.) image system. Gel density was quantified with Quantity One and expressed as a relative value against β-actin. The anti-ERK1/2 (#9102) and antipERK1/2 (#9106) were purchased from Cell Signaling Technology (Danvers, Mass.). Anti-ER-α66 (RB-9016) was obtained from Thermoscientific (Rockford, Ill.). Anti-ER-α36 antibody was an affinity-purified rabbit polyclonal anti-ER-36 antibody generated as a custom service from Pacific Immunology Corp (Ramona, Calif.). The ER-α36 antibody was raised against a synthetic peptide antigen corresponding to the unique C-terminal 20 aa of ER-α36.
ER-α36 is mainly localized on the plasma membrane and mediates the non-genomic estrogen pathways (Wang et al., 2005, Biochem. Biophys. Res. Commun. 336:1023-7, Wang et al., 2006, Proc. Natl. Acad. Sci. U.S.A., 103:9063-8). We reasoned that the inhibition on ER-α36 expression by let-7 family miRNAs might dampen the non-genomic estrogen pathway. […]

Data set [3] relates to pS2. Description: Immunoblot of pS2 after transfection in MCF7. Particulars: MCF7, mimics; for expression of pS2 (protein): after 2 days; for protein expression of pS2: after 6 days. The class given is cell-based, human.
Excerpt: as §1

A short description of data set [4]: Stability of miRNAs in serum (room temperature, freeze/thaw). The format is physicochemical, human. The settings on record: serum from a healthy person, freeze/thaw up to eight times. How it is done:
FIG. 21. Stability of miRNAs in room temperature for number of time points. 300 μl of sera from a healthy person was thawed on ice and lysed with an equal volume of 2× Denaturing Solution (Ambion). RNA was isolated spiked sera using the mirVana PARIS kit following the manufacturer's protocol for liquid samples (Ambion). RNA was eluted with 50 μl of nuclease-free water. This experiment was performed in triplicates.
FIG. 22. Stability of miRNAs in freeze/thaws. 300 μl of sera from a healthy person was thawed on ice, exogenous miRNAs were spiked in, and then performed freeze/thaw cycles for the indicated times, then lysed with an equal volume of 2× Denaturing Solution (Ambion). RNA was isolated spiked sera using the mirVana PARIS kit following the manufacturer's protocol for liquid samples (Ambion). RNA was eluted with 50 μl of nuclease-free water. This experiment was performed in triplicates.
Second, we wanted to know whether our lab conditions such as temperature and freezing and thawing affect the stability of miRNAs. We selected a serum sample from healthy […], and incubated in room temperature for a series of time points (spiked three exogenous miRNAs as external controls) (FIG. 21). As expected, the selected miRNAs were very stable throughout the experiment. This observation is in consistent with the literature (Mitchell et al., 2008, Proc. Natl. Acad. Sci. U.S.A 105:10513-8). […]

Data set [5] concerns estrogen response element (ERE) construct. Description: ERE luciferase assay (2 ERE-tk-Luc), genomic estrogen pathway in MCF7. The class given is cell-based, human. The settings on record: for ERE luciferase activity: MCF7, p2 ERE-tk-Luc, 10 nmol/L E2 12 hours, p<0.01; for luciferase activity of the ERE construct: MCF7 cell line. How it is done: For checking on the genomic estrogen pathway, 10^5 MCF7 cells were first seeded into each well on a 24-well plate and cultured in IMEM with 2.5% charcoal-stripped FBS for 2 days. Then the cells were transfected as described above except that the estrogen response element (ERE) construct (2 ERE-tk-Luc; obtained from Katarine Pettersson, Karolinska Institute, Stockholm) replaced the pMIR-REPORT plasmid for 1 day. After stimulation with 10 nmol/L E2 for 12 hours, luciferase activity was measured as described above.

In data set [6] the test system is cyclin D1. The experiment in a line: Immunoblot of cyclin D1 after transfection in MCF7. The class given is cell-based, human. Particulars: MCF7, mimics; for expression of cyclin D1 (protein): after 2 days; for protein expression of cyclin D1: after 6 days.
Excerpt: as §1
Background: A western blot detects proteins with antibodies after separation by electrophoresis.

Data set [7] concerns ER-α36. The experiment in a line: Immunoblot of ER-α36 after transfection. The format is cell-based, human. The settings on record: MDA-MB-231, two days post transfection of mimics. How it is done: Let-7 miRNA or negative control #1 miRNA of 60 nmol/L (Ambion, Austin, Tex.) was transfected into cells with the siPORT NeoFX reagent (Ambion, Austin, Tex.) following the manufacturer's protocol.
Cells were lysed with NP40 cell lysis buffer (250 mM NaCl, 50 mM Tris-HCl, pH 7.4, 5 mM EDTA, 50 mM NaF, 1 mM Na3VO4, 1% Nonidet P40, 1 mM PMSF, proteinase and phosphoproteinase inhibitor cocktails). The protein was also extracted from FFPE sections. FFPE sections (50 μm thick) were transferred into a microcentrifuge tube and treated with xylene, followed by vortexing vigorously for 10 seconds. After centrifugation and removal of supernatant, the sections were washed with xylene two more times, followed by one more wash with 1 mL of 100% ethanol. The resultant pellets were vacuum dried, then resuspended in 300 μL of 20 mM Tris-HCl (pH 8.0) and 2% SDS and homogenized. The samples were then boiled at 100° C. for 20 minutes and incubated at 60° C. for 1 hour. After centrifugation at 10,000 g for 15 min at 4° C., the supernatant protein was saved for immunoblot analysis.
After mixed with gel-loading buffer and boiled for 5 minutes, the protein samples were separated with 10% SDS-PAGE and transferred to a PVDF membrane (Millipore, Billerica, Mass.). […] Gel density was quantified with Quantity One and expressed as a relative value against β-actin. […]

On to “let-7i: let-7i miRNA (mimic), 3′-UUGUCGUGUUUGAUGAUGGAGU-5′ (SEQ ID NO:14) (chemistry not given here; listed 3' to 5')”, for which, in data set [1] (after 2 days), the “expression of ER-α (protein)” value is reported as “significantly depressed the expression of ER-α”. In addition, in data set [1] (after 6 days), the “expression of ER-α (protein)” value was “dramatically down-regulated the expression of ER-α”. Further, the “estrogen induced activation of the ERK1/2 (nongenomic estrogen pathway)” value in data set [2] is on record as “significantly inhibited”. In addition, in data set [3], the “expression of pS2 (protein)” value is given as “significantly inhibited” and the “protein expression of pS2” value is listed as “significantly suppressed”. Further, the “stability in repeated freeze/thaws” value in data set [4] is “relatively stable”. Also, in data set [5], the ERE luciferase activity entry is “about 60 % of negative control” and the “luciferase activity of the ERE construct” value was “inhibit the luciferase activity of the ERE construct”. Also, in data set [6], the “expression of cyclin D1 (protein)” value is on record as “significantly inhibited” and the “protein expression of cyclin D1” value is recorded as “modest effect”. Besides, the ER-α36 protein level entry in data set [7] is “strongly inhibited; also recorded: inhibited”.

As to “let-7b: let-7b miRNA (mimic), 3′-UUGGUGUGUUGGAUGAUGGAGU-5′ (SEQ ID NO:8) (chemistry not given here; listed 3' to 5')”, the “expression of ER-α (protein)” value in data set [1] (after 2 days) is given as “significantly depressed the expression of ER-α”. The “expression of ER-α (protein)” value in data set [1] (after 6 days) was “dramatically down-regulated the expression of ER-α”. The “estrogen induced activation of the ERK1/2 (nongenomic estrogen pathway)” value in data set [2] is “significantly inhibited”. Moreover, in data set [3], the “expression of pS2 (protein)” value was “significantly inhibited” and the “protein expression of pS2” value is recorded as “significantly suppressed”. The “stability in repeated freeze/thaws” value in data set [4] was “relatively stable”. Also, in data set [5], the ERE luciferase activity result is given as “about 40 % of negative control” and the “luciferase activity of the ERE construct” value was “inhibit the luciferase activity of the ERE construct”. Also, in data set [6], the “expression of cyclin D1 (protein)” value is listed as “significantly inhibited” and the “protein expression of cyclin D1” value was “significantly decreased”. For the same substance, in data set [7], the ER-α36 protein level entry was “strongly inhibited; also recorded: inhibited”.
